pIC50: −log10 of the molar value.

Test [1] relates to prostate cancer cell line (PC-3). Nature of the test: Cancer proliferation inhibitory activity (SRB, GI50), PC-3. Format: cell-based. The conditions noted are these: Homo sapiens, 48 hours. From the text: (§1) Particularly, the cancer proliferation inhibitory activity of the compounds of comparative examples (Ajoene and the compounds isosteric to Ajoene wherein R1 is allyl or benzyl) and the compounds of examples of the present invention (the compounds not isosteric to Ajoene wherein R^1 is phenyl) was investigated in human cancer cell lines (renal cancer cell line (ACHN), breast cancer cell line (MDA-MB-231), colorectal cancer cell line (HCT-15), prostate cancer cell line (PC-3), gastric cancer cell line (NUGC-3) and lung cancer cell line (NCl-H23)).
(§2) At this time, the cancer cell lines (renal cancer cell line (ACHN), breast cancer cell line (MDA-MB-231), colorectal cancer cell line (HCT-15), prostate cancer cell line (PC-3), gastric cancer cell line (NUGC-3) and lung cancer cell line (NCl-H23)) above were purchased from American Type Culture Collection (Manassas, Va., USA). Cells were cultured in RPMI 1640 supplemented with 10% fetal bovine serum, which were maintained 37° C. under 5% CO2 wet atmosphere. The cells were distributed in a 96-well plate, which was not treated (treated only with 0.1% DMSO) or treated with the compounds of examples of the present (0.1 μM to 10 μM). 48 hours later, the cells were fixed in 50% trichloroacetic acid, followed by staining with 1% acetic acid containing 0.4% sulphorodamine B dissolved therein. The non-conjugated dye was removed by washing with 1% acetic acid, and the protein conjugated dye was extracted with 10 mM Tris base (pH 10.5). Then, OD540 was measured with VersaMax microplate reader (Molecular devices, Sunnyvale, Calif., USA). GI50 was calculated by using GraphPad Prism software (GraphPad Software, Inc., San Diego, Calif., USA).
(§3) Based on the results obtained in experimental example 1-1 above, the derivatives wherein R^1 is phenyl were additionally synthesized. The cancer proliferation inhibitory activity of the derivatives was evaluated by the same manner as described in experimental example 1-1.

For test [2], the system named is colorectal cancer cell line (HCT-15). Nature of the test: Cancer proliferation inhibitory activity (SRB, GI50), HCT-15. The format is cell-based. The conditions noted are these: Homo sapiens, 48 hours.
Text: as §1, §2, §3

Test [3] deals with breast cancer cell line (MDA-MB-231). Nature of the test: Cancer proliferation inhibitory activity (SRB, GI50), MDA-MB-231. The format is cell-based. The conditions noted are these: Homo sapiens, 48 hours.
Text: as §1, §2, §3

The test system of test [4] is lung cancer cell line (NCl-H23). Nature of the test: Cancer proliferation inhibitory activity (SRB, GI50), NCI-H23. Particulars: Homo sapiens, 48 hours. Format: cell-based.
Text: as §1, §2, §3

The target of test [5] is T1, HDAC 8 (Homo sapiens, UniProt Q9BY41).
T1 sequence (Q9BY41 1-377): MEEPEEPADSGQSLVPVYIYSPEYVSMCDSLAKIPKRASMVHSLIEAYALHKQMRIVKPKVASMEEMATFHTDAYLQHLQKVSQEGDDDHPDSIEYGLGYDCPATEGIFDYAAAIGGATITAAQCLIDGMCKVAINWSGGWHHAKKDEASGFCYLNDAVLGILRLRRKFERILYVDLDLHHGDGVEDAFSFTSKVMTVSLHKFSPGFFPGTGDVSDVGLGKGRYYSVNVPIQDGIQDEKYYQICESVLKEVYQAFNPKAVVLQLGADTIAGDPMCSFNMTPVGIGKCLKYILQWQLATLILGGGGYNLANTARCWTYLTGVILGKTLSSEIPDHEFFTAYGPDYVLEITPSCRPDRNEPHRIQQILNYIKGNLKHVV
Nature of the test: HDAC enzyme fluorescence assay, HDAC 8. Format: biochemical. On the set-up: Inhibitory activity (%) HDAC 8: concentration or dose not given beside the values. The conditions noted are these: for Inhibitory activity (%) HDAC 8: (HDAC inhibitory activity of example compound/HDAC inhibitory activity of SAHA) × 100. As for the experimental part: Particularly, HDAC enzyme analysis was performed based on a uniform fluorescence emission assay. First, the compounds of examples of the present invention or comparative example 1 were diluted at different concentrations, which were treated to the analysis buffer containing 25 mM HEPES (pH 8.0), 137 mM NaCl, 1 mM MgCl2 and 2.7 mM KCL, followed by culture of the recombinant HDAC enzyme. 10 minutes later, Boc-Lys(acetyl)-AMC, the fluorescence inducing substrate, was added thereto, followed by further culture at 37° C. At this time, the concentration of the fluorescence inducing substrate and the culture time were adjusted according to the isotypes of the HDAC enzyme. The reaction was terminated by treating trypsin at room temperature for 20 minutes. The fluorescence intensity was measured using a fluorescence analyzer at an excitation wavelength of 380 nm and an emission wavelength of 460 nm, respectively. The inhibition rate was calculated from the measured fluorescence intensity of each well with comparing to that of the control well. IC50 of the compound was calculated by analyzing the dose-reaction inhibition curve.
The HDAC 8 inhibitory activity was presented as percentage of relative activity by the inhibitory activity of SAHA (Vorinostat) used as a reference compound.

Test [6] has as its system gastric cancer cell line (NUGC-3). Nature of the test: Cancer proliferation inhibitory activity (SRB, GI50), NUGC-3. Format: cell-based. The conditions noted are these: Homo sapiens, 48 hours.
Text: as §1, §2, §3

Test [7] has as its system renal cancer cell line (ACHN). Nature of the test: Cancer proliferation inhibitory activity (SRB, GI50), ACHN. Particulars: Homo sapiens, 48 hours. The format is cell-based.
Text: as §1, §2, §3

On to `COc1ccc([S+]([O-])C/C=C/SSCc2ccc(Cl)cc2)cc1` (stereo not shown) [Example 35, (E)-1-(4-chlorobenzyl)-2-(3-(4-methoxyphenylsulfinyl)prop-1-enyl)disulfane], for which the GI50 was 1050 nM in test [1]; 880 nM in test [2]; 1160 nM in test [3]; 970 nM in test [4]; 1080 nM in test [6]; 880 nM in test [7]. In addition, the “Inhibitory activity (%) HDAC 8” value in test [5] is recorded as 107.2%.
For `COc1ccc([S+]([O-])C/C=C/SSCc2ccc(F)cc2)cc1` (stereo not shown) [Example 33, (E)-1-(4-fluorobenzyl)-2-(3-(4-methoxyphenylsulfinyl)prop-1-enyl)disulfane], the GI50 in test [1] was 290 nM; in test [2], 250 nM; in test [3] it was 160 nM; in test [4], 270 nM; in test [6] it was 240 nM; in test [7] it was 170 nM. Moreover, the “Inhibitory activity (%) HDAC 8” value in test [5] stood at 111.7%.
`COc1cccc([S+]([O-])C/C=C\SSCc2ccc(F)cc2)c1` (stereo not shown) [Example 22, (Z)-1-(4-fluorobenzyl)-2-(3-(3-methoxyphenylsulfinyl)prop-1-enyl)disulfane]: the GI50 worked out at 3040 nM in test [1]; 3010 nM in test [2]; 4410 nM in test [3]; 2710 nM in test [4]; 3670 nM in test [6]; 3850 nM in test [7]. Also, the “Inhibitory activity (%) HDAC 8” value in test [5] was 122.9%.
Consider `COc1cccc([S+]([O-])C/C=C/SSCc2ccc(F)cc2)c1` (stereo not shown) [Example 21, (E)-1-(4-fluorobenzyl)-2-(3-(3-methoxyphenylsulfinyl)prop-1-enyl)disulfane], for which the GI50 is 1970 nM in test [1]; 1750 nM in test [2]; 2020 nM in test [3]; 2120 nM in test [4]; 1560 nM in test [6]; 2460 nM in test [7]. For the same compound, in test [5], the “Inhibitory activity (%) HDAC 8” value is 109.2%.
`CCCSS/C=C/C[S+]([O-])c1ccccc1` (stereo not shown) [Example 3, (E)-1-(3-(phenylsulfinyl)prop-1-enyl)-2-propyldisulfane]: the GI50 was 4740 nM in test [1]; 2640 nM in test [2]; 2150 nM in test [3]; 2800 nM in test [4]; 2930 nM in test [6]; 3900 nM in test [7]. Also, in test [5], the “Inhibitory activity (%) HDAC 8” value stood at 43.8%.
On to `CCCSS/C=C\C[S+]([O-])c1ccc(OC)cc1` (stereo not shown) [Example 30, (Z)-1-(3-(4-methoxyphenylsulfinyl)prop-1-enyl)-2-propyldisulfane], for which the GI50 in test [1] came to 3020 nM; in test [2], 2430 nM; in test [3], 2140 nM; in test [4], 3580 nM; in test [6], 2360 nM; in test [7], 3230 nM. Besides, the “Inhibitory activity (%) HDAC 8” value in test [5] is given as 52.9%. Moreover, the pIC50 in test [5] (recombinant HDAC enzyme, Boc-Lys(acetyl)-AMC, read-out: IC50 HDAC 8) is 6.54.
Consider `COc1ccc(CSS/C=C\C[S+]([O-])c2ccccc2)cc1` (stereo not shown) [Example 10, (Z)-1-(4-methoxybenzyl)-2-(3-(phenylsulfinyl)prop-1-enyl)disulfane], for which the GI50 in test [1] stood at 4240 nM; in test [2], 2330 nM; in test [3] it was 3580 nM; in test [4], 2030 nM; in test [6] it was 1660 nM; in test [7] it was 2720 nM. The “Inhibitory activity (%) HDAC 8” value in test [5] stood at 73.8%.
As for `[O-][S+](C/C=C\SSCc1ccc(Cl)c(Cl)c1)c1ccccc1` (stereo not shown) [Example 14, (Z)-1-(3,4-dichlorobenzyl)-2-(3-(phenylsulfinyl)prop-1-enyl)disulfane], the 50% growth inhibitory concentration (GI50) in test [1] is 4550 nM; in test [2], above 10000 nM; in test [3] it was 4780 nM; in test [4] it was 7350 nM; in test [6] it was 8510 nM; in test [7] it was 7680 nM. The “Inhibitory activity (%) HDAC 8” value in test [5] was found to be 146.4%.
As to `CCCSS/C=C/C[S+]([O-])c1ccc(OC)cc1` (stereo not shown) [Example 29, (E)-1-(3-(4-methoxyphenylsulfinyl)prop-1-enyl)-2-propyldisulfane], the GI50 in test [1] amounted to 2410 nM; in test [2], 1480 nM; in test [3], 2200 nM; in test [4], 1410 nM; in test [6], 2040 nM; in test [7], 1650 nM. Besides, the “Inhibitory activity (%) HDAC 8” value in test [5] stood at 69.9%.
In the case of `COc1cccc([S+]([O-])C/C=C\SSCc2ccc(Cl)c(Cl)c2)c1` (stereo not shown) [Example 26, (Z)-1-(3,4-dichlorobenzyl)-2-(3-(3-methoxyphenylsulfinyl)prop-1-enyl)disulfane], the GI50 in test [1] is 6670 nM; in test [2], 7250 nM; in test [3] it was above 10000 nM; in test [4] it was above 10000 nM; in test [6], 3220 nM; in test [7] it was above 10000 nM. The “Inhibitory activity (%) HDAC 8” value in test [5] worked out at 161.9%.
With `COc1ccc([S+]([O-])C/C=C\SSCc2ccc(Cl)cc2)cc1` (stereo not shown) [Example 36, (Z)-1-(4-chlorobenzyl)-2-(3-(4-methoxyphenylsulfinyl)prop-1-enyl)disulfane], the GI50 came out at 2280 nM in test [1]; 1620 nM in test [2]; 1780 nM in test [3]; 2190 nM in test [4]; 2840 nM in test [6]; 2410 nM in test [7]. Also, in test [5], the “Inhibitory activity (%) HDAC 8” value came out at 98.7%.
Turning to `COc1cccc([S+]([O-])C/C=C/SSCc2ccccc2)c1` (stereo not shown) [Example 19, (E)-1-benzyl-2-(3-(3-methoxyphenylsulfinyl)prop-1-enyl)disulfane], the GI50 in test [1] came out at 1440 nM; in test [2] it was 2080 nM; in test [3] it was 1770 nM; in test [4], 2120 nM; in test [6] it was 2340 nM; in test [7], 2500 nM. Besides, the “Inhibitory activity (%) HDAC 8” value in test [5] amounted to 88.1%.
For `[O-][S+](C/C=C/SSCc1ccc(F)cc1)c1ccccc1` (stereo not shown) [Example 7, (E)-1-(4-fluorobenzyl)-2-(3-(phenylsulfinyl)prop-1-enyl)disulfane], the GI50 was 3890 nM in test [1]; 10400 nM in test [2]; 3240 nM in test [3]; 7690 nM in test [4]; 6840 nM in test [6]; 7110 nM in test [7]. The “Inhibitory activity (%) HDAC 8” value in test [5] turned out to be 37.1%.
On to `COc1ccc([S+]([O-])C/C=C\SSCc2ccc(F)cc2)cc1` (stereo not shown) [Example 34, (Z)-1-(4-fluorobenzyl)-2-(3-(4-methoxyphenylsulfinyl)prop-1-enyl)disulfane], for which the concentration for 50% growth inhibition (GI50) in test [1] was determined as 1350 nM; in test [2] it was 1450 nM; in test [3], 1090 nM; in test [4], 1490 nM; in test [6], 2650 nM; in test [7], 1340 nM. Also, in test [5], the “Inhibitory activity (%) HDAC 8” value is 68.1%.
As to `C=CCSS/C=C\C[S+]([O-])c1ccc(OC)cc1` (stereo not shown) [Example 28, (Z)-1-allyl-2-(3-(4-methoxyphenylsulfinyl)prop-1-enyl)disulfane], the GI50 in test [1] was found to be 4470 nM; in test [2] it was 3940 nM; in test [3], 7280 nM; in test [4], 4240 nM; in test [6], 3770 nM; in test [7] it was 5060 nM. Besides, the “Inhibitory activity (%) HDAC 8” value in test [5] was determined as 73.5%.

The term GI50 denotes the concentration giving 50% growth inhibition. By pIC50 is commonly meant the IC50 on a negative log10 scale, so that one unit is a factor of ten.

For the origin of these results see US11230525B2, “Organic sulfur compound, method for preparing same, and pharmaceutical composition for preventing or treating cancer or an inflammatory disease, containing same as active ingredient” (SOOKMYUNG WOMENS UNIVERSITY INDUSTRY-ACADEMIC COOPERATION …, priority 2016, dated 2022).
